Data taken from patent publication US6716859B2, “Substituted N′-(Arylcarbonyl)-benzhydrazides, N′(Arylcarbonyl)-benzylidene-hydrazides and analogs as activators of caspases and inducers of apoptosis and the use thereof” (Cytovia, Inc., priority 2001, dated 2004).

What was measured:
[1] = tested on: breast and non-breast cancer cells; test: Cell proliferation assay, breast versus non-breast cancer cell lines; assay type: cell-based; conditions: conclusion from Tables III and IV
Protocol: (§1) T-47D and ZR-75-1 cells were grown and harvested as in Example 43. An aliquot of 90 μl of cells (2.2×10^4 cells/ml) was added to a well of a 96-well microtiter plate containing 10 μl of a 10% DMSO in RPMI-1640 media solution containing 1 nM to 100 μM of N′-(2-phenoxypyridine-3-carbonyl)-3-(trifluoromethyl)benzhydrazide (0.1 nM to 10 μM final). An aliquot of 90 μl of cells was added to a well of a 96-well microtiter plate containing 10 μl of a 10% DMSO in RPMI-1640 media solution without compound as the control sample for maximal cell proliferation (AMax). The samples were mixed by agitation and then incubated at 37° C. for 48 h in a 5% CO2-95% humidity incubator. After incubation, the samples were removed from the incubator and 20 μl of CellTiter 96 AQUEOUS One Solution Cell Proliferation™ reagent (Promega) was added. The samples were mixed by agitation and incubated at 37° C. for 2-4 h in a 5% CO2-95% humidity incubator. Using an absorbance plate reader (Model 1420 Wallac Instruments), an initial reading (T=0) was made approximately 1-2 min after addition of the solution, employing absorbance at 490 nm. This determines the possible background absorbance of the test compounds. No absorbance for N′-(2-phenoxypyridine-3-carbonyl)-3-(trifluoromethyl)benzhydrazide was found at 490 nm. After the 2-4 h incubation, the samples were read for absorbance as above (ATest).
Baseline for GI50 (dose for 50% inhibition of cell proliferation) of initial cell numbers were determined by adding an aliquot of 90 μl of cells or 90 μl of media, respectively, to wells of a 96-well microtiter plate containing 10 μl of a 10% DMSO in RPMI-1640 media solution. The samples were mixed by agitation and then incubated at 37° C. for 0.5 h in a 5% CO2-95% humidity incubator. After incubation, the samples were removed from the incubator and 20 μl of CellTiter 96 AQUEOUS One Solution Cell Proliferation™ reagent (Promega) was added. The samples were mixed by agitation and incubated at 37° C. for 2-4 h in a 5% CO2-95% humidity incubator. […]

NCI-H23 = test: Cell proliferation assay (GI50); assay type: cell-based; conditions: Homo sapiens
Protocol: as §1
(§2) Baseline for GI50 (dose for 50% inhibition of cell proliferation) of initial cell numbers were determined by adding an aliquot of 90 μl of cells or 90 μl of media, respectively, to wells of a 96-well microtiter plate containing 10 μl of a 10% DMSO in RPMI-1640 media solution. The samples were mixed by agitation and then incubated at 37° C. for 0.5 h in a 5% CO2-95% humidity incubator. After incubation, the samples were removed from the incubator and 20 μl of CellTiter 96 AQUEOUS One Solution Cell Proliferation™ reagent (Promega) was added. The samples were mixed by agitation and incubated at 37° C. for 2-4 h in a 5% CO2-95% humidity incubator. Absorbance was read as above, (AStart) defining absorbance for initial cell number used as baseline in GI50 determinations.
(§3) GI50 (dose for 50% inhibition of cell proliferation) is the concentration where [(ATest−AStart)/(AMax−AStart)]=0.5
(§4) T-47D, ZR-75-l, MX-1, SK-Br-3, MCF-7, Panc-1, K562 and PC-3 cells were grown according to the conditions recommended by American Type Culture Collection. SW620 and NCI-H23 were grown according to the conditions provided by National Cancer Institute. The cell proliferation assay and the calculations of GI50 were performed as in Example 21 (Tables III and IV).

MX-1 = test: Cell proliferation assay (GI50); assay type: cell-based; conditions: Homo sapiens, MX1
Protocol: as §1, §2, §3, §4

K562 = test: Cell proliferation assay (GI50); assay type: cell-based; conditions: Homo sapiens
Protocol: as §1, §2, §3, §4

MCF-7 = test: Cell proliferation assay (GI50); assay type: cell-based; conditions: Homo sapiens, MCF7
Protocol: as §1, §2, §3, §4

ZR-75-1 [2] = test: Cell proliferation assay (GI50); assay type: cell-based; conditions: Homo sapiens, 48 h
Protocol: as §1, §2, §3, §4

Panc-1 = test: Cell proliferation assay (GI50); assay type: cell-based; conditions: Homo sapiens
Protocol: as §1, §2, §3, §4

SK-Br-3 = test: Cell proliferation assay (GI50); assay type: cell-based; conditions: Homo sapiens
Protocol: as §1, §2, §3, §4

PC-3 = test: Cell proliferation assay (GI50); assay type: cell-based; conditions: Homo sapiens
Protocol: as §1, §2, §3, §4

SW-620 = test: Cell proliferation assay (GI50); assay type: cell-based; conditions: Homo sapiens
Protocol: as §1, §2, §3, §4

T-47D [3] = test: Cell proliferation assay (GI50); assay type: cell-based, Human; conditions: 48 h
Protocol: as §1, §2, §3, §4

T-47D [4] = test: Caspase cascade activation assay (fluorogenic DEVD substrate); assay type: cell-based, Human; conditions: 48 h; for Caspase activity Ratio: ratio of net RFU of test compound to control; for EC50: Homo sapiens, T47D, read-out: Caspase potency EC50
Protocol: (§5) Human breast cancer cell lines T-47D and ZR-75-1 were grown according to media component mixtures designated by American Type Culture Collection+10% FCS (Invitrogen Corporation), in a 5% CO2-95% humidity incubator at 37° C. T-47D and ZR-75-1 cells were maintained at a cell density between 50 and 80% confluency at a cell density of 0.1 to 0.6×10^6 cells/ml. Cells were harvested at 600×g and resuspended at 0.65×10^6 cells/ml into appropriate media+10% FCS. An aliquot of […] of cells was added to a well of a 96-well microtiter plate containing 2.5 μl of a 10% DMSO in RPMI-1640 media solution containing 0.16 to 100 μM of N′-(2-phenoxypyridine-3-carbonyl)-3-(trifluoromethyl)benzhydrazide (Example 1) or other test compound (0.016 to 10 μM final). An aliquot of 22.5 μl of cells was added to a well of a 384-well microtiter plate containing 2.5 μl of a 10% DMSO in RPMI-1640 media solution without test compound as the control sample. The samples were mixed by agitation and then incubated at 37° C. for 48 h in a 5% CO2-95% humidity incubator. After incubation, the samples were removed from the incubator and 25 μl of a solution containing 14 μM of N-(Ac-DEVD)-N′-ethoxycarbonyl-R110 (SEQ ID No:1) fluorogenic substrate (Cytovia, Inc.; WO99/18856), 20% sucrose (Sigma), 20 mM DTT (Sigma), 200 mM NaCl (Sigma), 40 mM Na PIPES buffer pH 7.2 (Sigma), and 500 μg/ml lysolecithin (Calbiochem) was added. The samples were mixed by agitation and incubated at room temperature. Using a fluorescent plate reader (Model SpectraMax Gemini, Molecular Devices), an initial reading (T=0) was made approximately 1-2 min after addition of the substrate solution, employing excitation at 485 nm and emission at 530 nm, to determine the background fluorescence of the control sample. After the 3 h incubation, the samples were read for fluorescence as above (T=3 h).
(§6) The Relative Fluorescence Unit values (RFU) were used to calculate the sample readings as follows:
(§7) RFU(T=3 h)−Control RFU(T=0)=Net RFU(T=3 h)
(§8) The activity of caspase cascade activation was determined by the ratio of the net RFU value for N′-(2-phenoxypyridine-3-carbonyl)-3-(trifluoromethyl)benzhydrazide (Example 1) or other test compound to that of control samples. The EC50 (nM) was determined by a sigmoidal dose-response calculation (Prism 2.0, GraphPad Software Inc.).

ZR-75-1 [5] = test: as above; assay type: cell-based, Human; conditions: 48 h; for Caspase activity Ratio: ratio of net RFU of test compound to control
Protocol: as §5, §6, §7, §8

T-47D cells = test: Cell cycle arrest by propidium iodide flow cytometry; assay type: cell-based, Human; conditions: 1 μM, 24 h
Protocol: T-47D, a breast cancer cell line, was maintained and harvested as described in Example 43. 5×10^5 Cells were treated with 1 μM of N′-(2-phenoxypyridine-3-carbonyl)-3-(trifluoromethyl)benzhydrazide for 24 h at 37° C. As a control, cells were also incubated with equivalent amount of solvent (DMSO). Cells were harvested at 1,200 rpm and then transferred to 12×75 mm polystyrene tubes. Cells were then resuspended in 500 μl of 1% Na Citrate, 0.1% Triton X-100, and 50 μg/ml of propidium iodide and incubated at room temperature for 30 min followed by flow cytometer analysis. All flow cytometry analyses were performed on FACScalibur (Becton Dickinson) using Cell Quest analysis software. The x-axis plotted the amount of fluorescence and the y-axis is plotted the number of cells with the indicated fluorescence. The T-47D control cell population profile is seen in FIG. 1A and the increase in G2/M (M4) DNA content cells that were treated with N′-(2-phenoxypyridine-3-carbonyl)-3-(trifluoromethyl)benzhydrazide is seen in FIG. 1B.

MX-1 cells = test: Clonogenic survival assay; assay type: cell-based; conditions: Homo sapiens, MX1, 48 h treatment, read-out: IC50 of inhibition of clonogenic survival
Protocol: (§9) T47D and MX-1 cells were grown according to the conditions recommended by American Type Culture Collection. In a well of a 96 well plate, 30,000 cells were seeded and treated with compound at the indicated concentrations for 48 hr in a 5% CO2-95% humidity incubator at 37° C. Control wells were treated with the same amount of solvent (DMSO) as the compound samples. After the indicated treatment time, the supernatant was removed to a sterile culture tube and the wells washed with phosphate buffered saline, and the adherent cells trypsinized for 5 min. The trypsinzed cells were added to the culture supernatant, cells were collected (1,200 rpm, 10 min), washed with phosphate buffered saline, and resupended in fresh media. The cells were counted for trypan blue negative cells, and the cells diluted with fresh media to 1,000 cells/ml. To a well of a 24-well plate, 0.1 ml of the cell suspension was added along with 1 ml of fresh media (cell suspensions were passed through a 22 G needle several times just before plating to form single cell suspensions). Plates are incubated in a 5% CO2-95% humidity incubator at 37° C. for 7-10 days. Colonies are counted when the sizes reached greater than 50 cells per colony. […] Colonies are rinsed with water and the colonies counted and the fraction surviving expressed as the percentage of the number of control colonies.

T47D cells = test: Clonogenic survival assay; assay type: cell-based; conditions: Homo sapiens, 48 h treatment, read-out: IC50 of inhibition of clonogenic survival
Protocol: as §9

| GI50 (NCI-H23) [nM] | GI50 (K562) [nM] | GI50 (MCF-7) [nM] | GI50 (Panc-1) [nM] | GI50 (SK-Br-3) [nM] | GI50 (PC-3) [nM] | GI50 (SW-620) [nM] | GI50 (T-47D [3]; Homo sapiens, T47D) [nM] | EC50 (T-47D [4]) [nM] | Caspase potency EC50 (ZR-75-1 [5]) | GI50 (T-47D [3]) [nM] | EC50 (ZR-75-1 [5]; Homo sapiens, read-out: Caspase potency EC50) [nM] | Structure (SMILES) | Selectivity of growth inhibition for breast cancer cells [1] | GI50 (MX-1) [nM] | GI50 (ZR-75-1 [2]) [nM] | Caspase activity Ratio (T-47D [4]) | Caspase activity Ratio (ZR-75-1 [5]) | G2/M (M4) DNA content cells (T-47D cells) | IC50 (MX-1 cells) [nM] | IC50 (T47D cells) [nM] |
| --- | --- | --- | --- | --- | --- | --- | --- | --- | --- | --- | --- | --- | --- | --- | --- | --- | --- | --- | --- | --- |
| > 10000 | > 10000 | 400 | > 10000 | 40 | > 10000 | > 10000 | 200 | 464 | INACTIVE | – | – | O=C(NNC(=O)c1cccnc1Oc1ccccc1)c1cccc(C(F)(F)F)c1 [Example 1, N′-(2-Phenoxypyridine-3-carbonyl)-3-(trifluoromethyl)benzhydrazide] | selectively inhibits the growth of breast cancer cells | 400 | 4500 | 11.6 | 1.8 | increase | ~600 | ~1050 |
| 1000 | 450 | 800 | – | 300 | – | 1000 | 1000 | 744 | – | 600 | 728 | O=C(NNC(=O)c1cccnc1Oc1ccccc1)c1ccccc1O [Example 8, N′-(2-Phenoxypyridine-3-carbonyl)-2-hydroxybenzhydrazide] | inhibiting the growth of both breast and non-breast cancer cells | 1000 | 300 | 7.3 | 5.6 | – | – | – |
| > 10000 | – | 250 | – | 20 | – | > 10000 | 60 | – | – | 80 | – | O=C(NN=Cc1cccc(C(F)(F)F)c1)c1cccnc1Oc1ccccc1 [Example 15, 2-Phenoxypyridine-3-carboxylic acid (3-trifluoromethylbenzylidene)-hydrazide] | selectively inhibits the growth of breast cancer cells | 400 | 2000 | – | – | – | – | – |
